This is an account of results in US11504365B2 (AVEO Pharmaceuticals, Inc., priority 2018, dated 2022).

Like-named read-outs stand apart in the source and are kept apart here.

Data set [1] concerns refractory advanced renal cell carcinoma (RCC). Put plainly: Randomized open-label Phase 3 study of tivozanib versus sorafenib, efficacy (PFS, OS, ORR, DoR). The settings on record: for median PFS: ITT population, independent radiologic review, stratified log rank p-value 0.0165; for median OS: ITT, two years after final patient enrollment, stratified log rank p-value 0.9501; for median PFS, subset receiving a prior check point inhibitor: prior checkpoint inhibitor at any time, tivozanib n=52, sorafenib n=46, unstratified Log-rank p-value 0.0616; for duration of response (DoR), 1st quartile: subjects with objective tumor response (PR or CR), not statistically significant; for 1-year probability of survival: subjects with prior checkpoint inhibitor, FIG. 5 (Kaplan-Meier analysis of IRR PFS).
Text: (§1) The randomization of subjects was stratified according to the International Metastatic Renal Cell Carcinoma Database Consortium (IMDC) risk category (favorable, intermediate, poor) and according to prior therapy which could be: 1) two prior VEGFR TKIs; 2) a check point inhibitor (e.g., a PD-1 or PDL-1 inhibitor) and a prior VEGFR TKI; or 3) a VEGFR TKI plus any other systemic agent. Once the strata were identified, treatment was randomly assigned to a subject with the strata using a complete permuted block design in an unblended fashion (open-label).
Cycles were repeated every 4 weeks.
(§2) Subjects were analyzed as randomized • 2. […] Subjects were analyzed as treated. • 3. […] Subjects were analyzed as treated.
(§3) The primary efficacy endpoint (PFS) and secondary efficacy endpoints (OS, ORR, and DoR) analyses were carried out using the ITT population. The primary efficacy endpoint of PFS also was analyzed using the PP population.
(§4) The IRR was the primary data source for the PFS analysis.
(§5) The primary analysis was carried out by using a stratified Log-Rank test, in which the stratification factors were IMDC risk category (favorable; intermediate; poor) and prior therapy (two prior VEGFR TKIs; a prior checkpoint inhibitor (PD-1 or PD1 L inhibitor) plus a prior VEGFR TKI; a prior VEGFR TKI plus any other systemic agent), and using a two-sided 5% significance level. The distribution of the PFS was estimated using the Kaplan-Meier method.
(§6) The DoR was analyzed using the same method as the progression-free survival analysis. DoR was only calculated for the subgroup of subjects with an objective tumor response (PR or CR).

For data set [2] the following is noted: prior phase III clinical trial; cited from earlier work.
The conditions of data set [3]: 1.5 mg/day, 3 weeks on, 1 week off, cited from earlier work.
For data set [4] the following is noted: cited from earlier work.
The subject of data set [5] is refractory advanced renal cell carcinoma (RCC).
Text: as §1
Cycles were repeated every 4 weeks.
as §2, §3, §4, §5, §6
[6] abbreviates: subjects with prior therapy with a VEGFR TKI plus any other systemic agent.
The mark [7] stands for this setting: subjects with prior therapy with a checkpoint inhibitor and a prior VEGF TKI.
Where [8] appears, read: subjects with prior therapy with two VEGFR TKIs.

As to `COc1cc2nccc(Oc3ccc(NC(=O)Nc4cc(C)on4)c(Cl)c3)c2cc1OC` [tivozanib, N-{2-chloro-4-[(6,7-dimethoxy-4-quinolyl)oxy]-phenyl}-N′-(5-methyl-3-isoxazolyl)urea], in data set [1], the “median PFS” value is 5.59 months; the “median OS” value was 16.39 months; the “median PFS, subset receiving a prior check point inhibitor” value was 7.29 months; the “duration of response (DoR), 1st quartile” value is on record as 9.79 months. In addition, the “1-year probability of survival” value in data set [1] is recorded as 0.37. In addition, the “difference in OS between tivozanib and sorafenib in subgroup analyses” value in data set [1] (ITT subgroups, Cox Model hazard ratios with 95% confidence intervals) was “do not indicate a statistically significant difference in OS”. Also, the “ORR (CR + PR)” value in data set [1] (all subjects, 31 PR/172 tivozanib, 14 PR/175 sorafenib) is 18.0%. For the same compound, the ORR in data set [1] (setting [6]) worked out at 16.7%. Moreover, the ORR in data set [1] (setting [7]) came to 24.4%. This compound registered an ORR in data set [1] (setting [8]) of 15.2%. In addition, the “difference in OS between the two treatment groups” value in data set [1] (subset with prior checkpoint inhibitor, unstratified Log-rank p-value 0.8360) is “no statistically significant differences”. Also, the “treatment interruptions and dose reductions due to AEs, compared with sorafenib” value in data set [2] is “fewer treatment interruptions and dose reductions due to AEs”. Besides, the “study subjects requiring a dose interruption” value in data set [3] (8/272 subjects) was 2.9%. Also, in data set [3] (23/272 subjects), the “study subjects requiring a dose reduction” value is listed as 8.5%. For the same compound, the “subjects experiencing a dose limiting toxicity (DLT)” value in data set [4] (2 mg/day tivozanib group) is listed as 3 of 8. Besides, in data set [4] (previous study KRN951/03-B01), the “maximum tolerated dose (MTD)” value is on record as 1.5 mg/day and the “reversibility of toxicities upon stopping treatment” value is “rapidly reversible”.
For `CNC(=O)c1cc(Oc2ccc(NC(=O)Nc3ccc(Cl)c(C(F)(F)F)c3)cc2)ccn1` [sorafenib, reference compound], in data set [1], the “median PFS” value was 3.88 months; the “median OS” value was determined as 19.65 months; the “median PFS, subset receiving a prior check point inhibitor” value was 5.91 months; the “duration of response (DoR), 1st quartile” value stood at 5.55 months. For the same compound, the “1-year probability of survival” value in data set [1] was 0.05. Also, the ORR in data set [1] (setting [6]) came to 9.8%. This compound had an ORR in data set [1] (setting [7]) of 6.8%. The same compound gave an ORR in data set [1] (setting [8]) of 7.5%. Also, the “ORR (CR + PR)” value in data set [5] is 8.0%.
